In data set [1] the test system is human monocyte-derived dendritic cells and macrophages. As to the kind of experiment: chemotaxis (48-well microchemotaxis chamber) of primary cells. The format is cell-based. As to the method:
(§1) Monocyte-derived DCs were generated by GM-CSF (50 ng/ml) and IL-13 (20 ng/ml) stimulation as previously described (17). Maturation of DCs was achieved following stimulation with 100 ng/ml LPS. Macrophages were obtained by incubating monocytes in Petriperm dishes (Haereus) for 6 days in RPMI supplemented with 10% FCS and 10 ng/ml MCSF. Cell migration was evaluated using a 48-well microchemotaxis chamber technique as described (18). For Ca2+ mobilization assays, monocyte-derived DCs or macrophages (10^7 cells/ml in HBSS without phenol red but containing 0.1% BSA) were loaded with 5 μM FURA-2 (Molecular Probes) for 30 min at 37° C. in the dark. The loaded cells were washed twice, resuspended at 10^6 cells/ml, kept for 30 min at 4° C. in the dark with or without the blocking 4C7 monoclonal antibody (10 μg/ml), and transferred into the quartz cuvette of a luminescence spectrometer LS50B (PerkinElmer).

Data set [2] has as its system human chemerinR in CHO-K1 cells. The data set is described as follows: intracellular cascade assays (calcium release, cAMP accumulation, p42/p44 MAP kinase phosphorylation) in CHO/chemerinR cells. The format is cell-based. In general terms: cAMP levels reflect the balance of adenylyl cyclase and phosphodiesterase activity.
A further data set relates to wild-type CHO-K1 cells. As to the kind of experiment: signalling assays on wild-type CHO-K1 cells. The format is cell-based, hamster.
The test system of data set [3] is monocyte-derived immature dendritic cells and macrophages. As to the kind of experiment: Ca2+ mobilization (FURA-2) in primary cells. The format is cell-based, human. As to conditions: similar for macrophages, Chemerin 30 nM. Here is the method: as §1
In general terms: Calcium flux is commonly read through the fluorescence of an indicator in the cells.

Data set [4] deals with C5a and C3a receptors, CRTH2, GPR1, other characterized and orphan receptors, most chemokine receptors. The data set is described as follows: reactivity of related and other receptors to Chemerin. It counts as cell-based. As to conditions: purified human Chemerin.
Data set [5] has as its target T1, human ChemerinR (ChemR23) expressed in CHO-K1 cells (Homo sapiens, UniProt Q99788).
T1 construct: This fragment was subcloned into the pcDNA3 (Invitrogen) vector; expressed in transfected cells; host or cells: CHO-K1 (co-expressing mitochondrial apoaequorin and Galpha16)
T1 sequence (Q99788 3-373): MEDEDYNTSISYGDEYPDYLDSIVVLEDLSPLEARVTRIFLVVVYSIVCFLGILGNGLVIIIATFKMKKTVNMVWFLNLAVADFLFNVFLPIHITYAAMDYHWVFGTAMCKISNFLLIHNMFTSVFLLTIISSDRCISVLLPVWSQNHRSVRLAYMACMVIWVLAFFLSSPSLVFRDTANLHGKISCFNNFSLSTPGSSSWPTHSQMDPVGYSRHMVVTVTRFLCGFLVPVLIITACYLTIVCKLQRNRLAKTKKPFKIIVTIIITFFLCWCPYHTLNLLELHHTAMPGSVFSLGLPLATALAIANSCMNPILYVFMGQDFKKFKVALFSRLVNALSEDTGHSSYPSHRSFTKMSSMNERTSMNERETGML
The data set is described as follows: aequorin-based intracellular Ca2+ release assay. The format is cell-based. Here is the method: Briefly, ChemerinR-expressing clones are transfected to coexpress mitochondrial apoaequorin and Gα16. Cells are incubated with 5 μM Coelenterazine H (Molecular Probes) for 4 hours at room temperature, washed in DMEM-F12 culture medium and resuspended at a concentration of 0.5×10^6 cells/ml. Cells are then mixed with test agonist peptides and light emission by the aequorin is recorded with a luminometer for 30 sec. Results are expressed as Relative Light Units (RLU). Controls include assays using membranes isolated from cells not expressing ChemerinR (mock-transfected), in order to exclude possible non-specific effects of the candidate compound.
ChemerinR-expres sing clones have been obtained by transfection of CHO-K1 cells to coexpressing mitochondrial apoaequorin and Gα16, limiting dilution and selection by northern blotting. Positive clones were used for screening with human ovarian cancer ascites extracts prepared as described above. […] Briefly, cells were collected from plates in PBS containing 5 mM EDTA, pelleted and resuspended at 5×10^6 cells/ml in DMEM-F12 medium. Cells were incubated with 5 μM Coelenterazine H (Molecular Probes) for 4 hours at room temperature. Cells were then washed in DMEM-F12 medium and resuspended at a concentration of 0.5×10^6 cells/ml. Cells were then mixed with test agonist peptides or plates containing tissue extracts and the light emission was recorded for 30 sec using a Microlumat luminometer (Perkin Elmer). Results are expressed as Relative Light Units (RLU).

Data set [6] concerns the target T2, ChemerinR expressing CHO-K1 cells (Homo sapiens, UniProt Q99788).
T2 construct: This fragment was subcloned into the pcDNA3 (Invitrogen) vector; expressed in transfected cells; host or cells: CHO-K1
T2 sequence (Q99788 3-373): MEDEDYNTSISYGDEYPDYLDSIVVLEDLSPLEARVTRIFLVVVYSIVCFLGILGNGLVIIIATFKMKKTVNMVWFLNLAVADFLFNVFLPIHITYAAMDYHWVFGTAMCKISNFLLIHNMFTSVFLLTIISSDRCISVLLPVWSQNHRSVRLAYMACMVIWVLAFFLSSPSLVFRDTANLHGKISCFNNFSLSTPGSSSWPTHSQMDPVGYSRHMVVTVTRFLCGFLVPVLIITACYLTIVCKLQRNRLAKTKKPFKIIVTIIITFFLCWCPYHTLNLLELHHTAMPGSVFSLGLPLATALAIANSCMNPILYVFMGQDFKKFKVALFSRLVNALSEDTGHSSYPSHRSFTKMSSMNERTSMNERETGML
The data set is described as follows: competition binding assay with 125I-[…] tracer. To be noted: mean±s.e.m for 3 independent experiments. As to the method: ChemerinR expressing CHO-K1 cells were collected from plates with PBS supplemented with 5 mM EDTA, gently pelleted for 2 min at 1000×g, and resuspended in binding buffer (50 mM HEPES, pH 7.4, 1 mM CaCl2, 5 mM MgCl2, 0.5% BSA). […] Total binding was measured in the absence of competitor, and nonspecific binding was measured in the presence of a 100-fold excess of unlabeled ligand. Samples were incubated for 90 min at 27° C. and then bound tracer was separated by filtration through GF/B filters presoaked in 0.5% BSA. Filters were counted in a […]-scintillation counter. Binding parameters were determined with the PRISM software (Graphpad Software) using nonlinear regression applied to a one-site competition model.

Another data set concerns B16-F0 melanoma cells. The data set is described as follows: B16-F0 melanoma model, subcutaneous graft in C57Bl6 mice. The format is in vivo, mouse. Here is the method:
(§2) B16-F0 melanoma cells (ATCC) were transfected with the pEFIN3-mouse chemerin plasmid using FuGene6, and selected with 800 μg/ml G418. Clones were characterized by assaying the conditioned medium on chemerinRexpres sing cells. In vitro proliferation rate was determined by BrdU incorporation as described30. For in vivo studies, cells were washed twice with PBS, and grafted (6×10^5 cells in 0.1 ml PBS) subcutaneously into the back of 10-week-old C57B16 mice (5 to 11 mice per group, Harlan, The Netherlands). Perpendicular tumor diameters (D and d) were measured every 2 days, and the volume was estimated as V=π(d/2)(D/2)(d/2). Statistical analysis was performed by using the unpaired non parametric Mann-Whitney test. For microscopic analysis, tumors were embedded in OCT, snap-frozen in −80° C. isopentane and cut at 12 μm. Sections were stained with hematoxylin-eosin (HE) for routine analysis. All animal procedures were approved by the ethical committee of the Medical School of the Universite Libre de Bruxelles.

The subject of a further data set is B16F0 melanoma cell line. As to the kind of experiment: in vitro proliferation of transfected B16F0 cells (BrdU, cell cycle, cell counting). The format is cell-based, mouse. As to conditions: expression of Chemerin in B16F0 cells. As to the method: as §2
For data set [7] the following is noted: 100 nM; culture medium or conditioned media of CHO-K1, Cos-7 or HEK293 cells.
Procedure: In order to investigate whether proteolytic activation of prochemerin is performed intracellularly in the secretory pathway, or is an extracellular process, potentially regulated by the activation of extracellular proteases, we tested the activation of human purified prochemerin in the medium of cultured cells and conditioned media.

The EC50 is the concentration at which the effect is half-maximal. By Ki is commonly meant the equilibrium dissociation constant of an inhibitor or competing ligand from its target. Read a low Ki as a stronger hold on the target.

Like-named read-outs stand apart in the source and are kept apart here. Peptide text beside a SMILES is read from it.

As for Pertussis toxin [reference compound], the “effect on Chemerin-induced migration” value in data set [1] (macrophages and dendritic cells, Pertussis toxin 3 μg/ml, 4C7 10 μg/ml) is reported as “completely abolished”. The “effect on Chemerin signalling effects” value in data set [2] (pretreatment) is recorded as “inhibited”.
As for “recombinant Chemerin: human recombinant Chemerin expressed in CHO-K1 cells, C-terminally truncated after serine 157 (137 amino acids)”, the “activity on wild-type CHO-K1 cells” value in the data set on wild-type CHO-K1 cells is “No activity”. The “intracellular Ca2+ levels” value in data set [3] is listed as “increased”. Besides, in [1] (immature dendritic cells), the “concentration of maximal chemotactic activity” value turned out to be 1 nM. The in vitro migration entry in data set [1] (macrophages and immature dendritic cells) was “promoted in vitro migration”. Besides, in [1] (mature dendritic cells), the chemotaxis result was “no chemotaxis”. Further, the “concentrations causing intracellular calcium release, inhibition of cAMP accumulation, phosphorylation of p42 and p44 MAP kinases” value in data set [2] was “low nanomolar concentrations”. Besides, the “reactivity of other receptors” value in data set [4] is given as “totally unreactive”.
`C[C@H](NC(=O)[C@H](Cc1ccccc1)NC(=O)[C@H](CCC(N)=O)NC(=O)CNC(=O)[C@@H]1CCCN1C(=O)[C@H](Cc1ccccc1)NC(=O)[C@H](Cc1ccccc1)NC(=O)[C@H](Cc1ccccc1)NC(=O)[C@H](CO)NC(=O)[C@H](Cc1c[nH]cn1)NC(=O)[C@@H](N)Cc1ccc(O)cc1)C(=O)N[C@@H](Cc1ccccc1)C(=O)N[C@@H](CO)C(=O)O` (H-YHSFFFPGQFAFS-OH; N-terminus and C-terminus assumed) returned an EC50 in data set [5] of 28 nM. Further, the Ki in [6] (Ki) was 12.1 ± 4.97 nM; in data set [6] (pKi), 11.2 nM.

B1: mouse Chemerin: mouse Chemerin expressed by B16F0 melanoma cells transfected with a bicistronic expression vector containing the mouse Chemerin cDNA (protein)
chain: EPELSETQRRSLQVALEEFHKHPPVQLAFQEIGVDRAEEVLFSAGTFVRLEFKLQQTNCPKKDWKKPECTIKPNGRRRKCLACIKMDPKGKILGRIVHCPILKQGPQDPQELQCIKIAQAGEDPHGYFLPGQFAFSRALRTK
For B1, the “average reduction of size of developing tumors” value in the data set on B16-F0 melanoma cells (21-24 days after the graft of Chemerin-expressing cells vs control) came to 70%. Moreover, in the data set on B16-F0 melanoma cells (three series combined, up to four weeks after graft, 0/24 in control group, p<0.05), the “mice that did not develop tumors” value is reported as 5 out of 24. Also, the “growth rate of the cell lines” value in the data set with B16F0 melanoma cell line was “did not modify the growth rate”.

B2: prochemerin: unprocessed form of the protein retaining the six C-terminal aminoacids (143 amino acids) (protein, listed as Homo sapiens)
chain: ELTEAQRRGLQVALEEFHKHPPVQWAFQETSVESAVDTPFPAGIFVRLEFKLQQTSCRKRDWKKPECKVRPNGRKRKCLACIKLGSEDKVLGRLVHCPIETQVLREAEEHQETQCLRVQRAGEDPHSFYFPGQFAFSKALPRS
For B2, the “activity on wild-type CHO-K1 cells” value in the data set on wild-type CHO-K1 cells was “No activity”. Besides, in data set [7], the “conversion into a form active on ChemerinR” value is on record as “fully converted”. Moreover, the EC50 in [5] (CHO cells expressing ChemerinR, aequorin assay, read-out: EC50 for activation of ChemerinR) turned out to be 393 ± 116 nM; in [5] (truncated Chemerin peptides, values in nM, read-out: Mean EC50), 393 ± 116 nM.

These data come from US8030453B2, “Methods of making an antibody that binds a chemerin polypeptide” (Euroscreen S.A., priority 2001, dated 2011).
